# From patent publication US11071317B2, “Sweetness enhancement” (Givaudan, S.A., priority 2015, dated 2021)
# Where “and” joins values, the source holds several entries; their conditions need not be identical. Equal entries are not always repeated.
# What was measured:
# Type in all cases: in vivo
# [1] = system: sweet sensitive panelists; assay: Ranking of 4% cellobiose against sucrose standards (1% and 1.5%) in water for overall sweetness intensity, r-index analysis
# From the text: 20 sweet sensitive panelists ranked 4% cellobiose and sucrose standards (1% and 1.5%) for overall sweetness intensity over 2 replications for a total of 40 observations.
# [2] = system: sweet sensitive panelists; assay: Ranking of 5% sucrose+4% cellobiose against sucrose standards (6%, 7% and 8%) in water for overall sweetness intensity, r-index analysis; settings: 4% cellobiose in combination with 5% sucrose
# From the text: 20 sweet sensitive panelists rank ranked 5% sucrose+4% cellobiose and sucrose standards (6%, 7% and 8%) in water for overall sweetness intensity over 2 replications for a total of 40 observations. […] The expected sucrose equivalence (SE) of 4% cellobiose on top of 5% sucrose would be 6.25% (1.25%+5%) but the perceived SE was 7%, showing true sweetness enhancement.
# trained panelists = assay: Descriptor scoring (overall, upfront, delayed, lingering sweet; 100-point scale) of 80 ppm Reb-A in water with 4% cellobiose
# Procedure: The test was carried out by a panel of 14 trained panelists. The panelists scored 4 descriptors (overall sweet, upfront sweet, delayed sweet and lingering sweet) on a 100-point scale over 4 replications for a total of […].
# expert tasters [3] = assay: Expert taster comparison, model beverage: water, 200 ppm sucralose, 2% cellobiose vs base
# Procedure: (§1) Samples were evaluated by a panel of 7 expert tasters. Tasters were asked to compare the base (200 ppm of sucralose) with the model beverage (water, 200 ppm of sucralose, 2% cellobiose) focusing on the overall quality of sweetness, particularly on the enhancement of the upfront sweetness, overall sweetness intensity.
# expert tasters [4] = assay: Expert taster comparison, model beverage: water, 95 ppm sucralose, 2% cellobiose vs base
# Procedure: as §1, with “8” for “7”, “(95” for “(200”, “95” for “200”
# expert tasters [5] = assay: Expert taster comparison, model beverage: water, 5% sucrose, 0.1% cellobiose vs base
# Procedure: as §1, with “9” for “7”, “(water with 5%” for “(200 ppm”, “sucrose)” for “sucralose)”, “5%” for “200 ppm”, “sucrose, and 0.1%” for “sucralose, 2%”
# expert tasters [6] = assay: Expert taster comparison, model beverage: water, 5% sucrose, 2% cellobiose vs base
# Procedure: as §1, with “13” for “7”, “(water with 5%” for “(200 ppm”, “sucrose)” for “sucralose)”, “5%” for “200 ppm”, “sucrose, and” for “sucralose,”
# expert tasters [7] = assay: Expert taster comparison, model beverage: water, 7% sucrose, 2% cellobiose vs base
# Procedure: as §1, with “6” for “7”, “(water with 7%” for “(200 ppm”, “sucrose)” for “sucralose)”, “7%” for “200 ppm”, “sucrose, and” for “sucralose,”
# expert tasters [8] = assay: Expert taster comparison, lemon lime beverage (water, sodium benzoate, 90 ppm sucralose, citric acid) with 4% cellobiose vs base; settings: 2000 ppm sodium benzoate, 500 ppm citric acid, 850 ppm lemon lime flavor
# Procedure: (§2) Samples were evaluated by a panel of 6 expert tasters. Tasters were asked to compare the base (water, 2000 ppm sodium benzoate, 90 ppm sucralose, 500 ppm citric acid, 850 ppm lemon lime flavor) with the model beverage (water, 2000 ppm sodium benzoate, 90 ppm sucralose, 500 ppm citric acid, 850 ppm lemon lime flavor, 4% cellobiose) focusing on the overall quality of sweetness, particularly on the enhancement of the upfront sweetness, overall sweetness intensity.
# expert tasters [9] = assay: Expert taster comparison, carbonated lemon lime beverage (sodium benzoate, 90 ppm Sucralose, citric acid) with 4% cellobiose vs base; settings: carbonated water, 2000 ppm sodium benzoate, 500 ppm citric acid, 850 ppm lemon lime flavor
# Procedure: as §2, with “of 7” for “of 6”, “base (carbonated water,” for “base (water,”, “ppm Sucralose,” for “ppm sucralose,”
# expert tasters [10] = assay: Expert taster comparison, lemon lime beverage (water, sodium benzoate, 180 ppm Reb-A, citric acid) with 4% cellobiose vs base, panel of 7 (Example 11); settings: 2000 ppm sodium benzoate, 500 ppm citric acid, 850 ppm lemon lime flavor
# Procedure: (§3) Samples were evaluated by a panel of 7 expert tasters. Tasters were asked to compare the base (water, 2000 ppm sodium benzoate, 180 ppm Reb-A, 500 ppm citric acid, 850 ppm lemon lime flavor) with the model beverage (water, 2000 ppm sodium Benzoate, 180 ppm Reb-A, 500 ppm citric acid, 850 ppm lemon lime flavor, 4% cellobiose) focusing on the overall quality of sweetness, particularly on the enhancement of the upfront sweetness, overall sweetness intensity.
# expert tasters [11] = assay: Expert taster comparison, lemon lime beverage (water, sodium benzoate, 180 ppm Reb-A, citric acid) with 4% cellobiose vs base, panel of 8 (Example 12); settings: 2000 ppm sodium benzoate, 500 ppm citric acid, 850 ppm lemon lime flavor
# Procedure: as §3, with “8” for “7”
# expert tasters [12] = assay: Expert taster comparison, plain zero-fat yoghurt with 180 ppm RebA and 4% cellobiose vs base; settings: 180 ppm RebA
# Procedure: Yoghurt RebA 180 ppm+4% cellobiose
# (§4) In a plain zero-fat yoghurt, sweetened with rebaudioside A (180 ppm), cellobiose was tested at 4% for sweetness enhancement. Samples were evaluated by a panel of 6 expert tasters. Tasters were asked to compare the base (plain yoghurt+180 ppm RebA) with the model yoghurt (plain yoghurt, 180 ppm RebA 4% cellobiose) focusing on the overall quality of sweetness.
# expert tasters [13] = assay: Expert taster comparison, plain zero-fat yoghurt with 90 ppm sucralose and 4% cellobiose vs base; settings: 90 ppm sucralose
# Procedure: as §4, with “sucralose (90” for “rebaudioside A (180”, “yoghurt+90” for “yoghurt+180”, “sucralose)” for “RebA)”, “90” for “180”, “sucralose,” for “RebA”
# [14] = Sweetness and mouthfeel equivalence of sucrose + cellobiose solutions to sucrose solutions (general statement)
# [15] = 4% cellobiose added to 80 ppm Reb-A in water, vs unaltered 80 ppm Reb-A base
compound,measurement,setting,value
OC[C@H]1O[C@@H](O[C@H]2[C@H](O)[C@@H](O)C(O)O[C@@H]2CO)[C@H](O)[C@@H](O)[C@@H]1O (mixture of isomers) [cellobiose],sweetness rated as sweet as sucrose,[1]; 4% cellobiose,1.25 % sucrose
same,inherent sweetness on its own,[1]; 4% cellobiose in water,not inherently sweet
same,overall sweetness intensity relative to sucrose standards,"[1]; 4% cellobiose in water, r-index analysis, 95% confidence level, p-value<0.05",< 1.5 % sucrose and > 1.0 % sucrose
same,sweetness enhancement,[2],sweetness enhancement beyond an additive effect
same,delayed sweetness,trained panelists; [15],significantly decreased
same,lingering sweetness,trained panelists; [15],significantly decreased
same,overall sweetness,trained panelists; [15],significantly increased
same,upfront sweetness,trained panelists; [15],significantly increased
same,upfront sweetness,"trained panelists; 80 ppm Reb-A and 4% cellobiose, vs isosweet 150 ppm Reb-A sample",significantly increased
same,Reb-A aqueous solution of the same sweetness,trained panelists; aqueous solution of 80 ppm Reb-A and 4% cellobiose,150 ppm Reb-A
same,mouthfeel,expert tasters [3],better mouthfeel
same,offnotes,expert tasters [3],decreased offnotes
same,profile,expert tasters [3],rounded profile
same,sweetness enhancement,expert tasters [3],significant sweetness enhancement
same,upfront sweetness enhancement,expert tasters [3],upfront sweetness enhancement
same,mouthfeel,expert tasters [4],better mouthfeel
same,offnotes,expert tasters [4],decreased offnotes
same,profile,expert tasters [4],rounded profile
same,sweetness enhancement,expert tasters [4],significant sweetness enhancement
same,upfront sweetness enhancement,expert tasters [4],upfront sweetness enhancement
same,profile,expert tasters [5],rounded profile
same,sweetness enhancement,expert tasters [5],significant sweetness enhancement
same,mouthfeel,expert tasters [6],better mouthfeel
same,profile,expert tasters [6],rounded profile
same,sweetness enhancement,expert tasters [6],significant sweetness enhancement
same,upfront sweetness enhancement,expert tasters [6],upfront sweetness enhancement
same,profile,expert tasters [7],rounded profile
same,sweetness enhancement,expert tasters [7],significant sweetness enhancement
same,upfront sweetness enhancement,expert tasters [7],upfront sweetness enhancement
same,aroma profile,expert tasters [8],rounded aroma profile
same,sweetness enhancement,expert tasters [8],significant sweetness enhancement
same,upfront sweetness enhancement,expert tasters [8],upfront sweetness enhancement
same,aroma profile,expert tasters [9],rounded aroma profile
same,mouthfeel,expert tasters [9],improved mouthfeel
same,sweetness enhancement,expert tasters [9],significant sweetness enhancement
same,upfront sweetness enhancement,expert tasters [9],upfront sweetness enhancement
same,aroma profile,expert tasters [10],rounded aroma profile
same,mouthfeel,expert tasters [10],improved mouthfeel
same,sweetness enhancement,expert tasters [10],significant sweetness enhancement
same,upfront sweetness enhancement,expert tasters [10],upfront sweetness enhancement
same,aroma profile,expert tasters [11],rounded aroma profile
same,mouthfeel,expert tasters [11],improved mouthfeel
same,sweetness enhancement,expert tasters [11],significant sweetness enhancement
same,upfront sweetness enhancement,expert tasters [11],upfront sweetness enhancement
same,overall balance and quality of sweetness,expert tasters [12],significantly better overall balance and quality of sweetness
same,sweetness,expert tasters [12],much sweeter
same,balance and quality of sweetness,expert tasters [13],significantly improved balance and quality of sweetness
same,sweetness,expert tasters [13],much sweeter
same,sucrose solution of similar sweetness and mouthfeel characteristics,[14]; solution of 2% sucrose and 4% cellobiose,~4 % sucrose
same,sucrose solution of very similar taste,[14]; solution of 5% sucrose+4% cellobiose,~7 % sucrose
same,sucrose solution of very similar taste,[14]; solution of 7% sucrose+4% cellobiose,~9 % sucrose
